Source: patent US6703205B2, “Apparatus and methods for correcting for variable velocity in microfluidic systems” (Caliper Technologies Corp., priority 1997, dated 2004)

Columns and labels:
HCV protease = HCV protease (Hepatitis C virus genotype 1a, UniProt P27958); assay: On-chip continuous flow HCV protease assay with FRET depsipeptide substrate; format: biochemical; details: 25 mM TRIS/HCL, pH 8.5, 0.1% Triton X-100, 10 mM DTT, 1M NDSB-195
From the text: HCV protease was used in a similar fluorogenic assay to LAR phosphatase; however, the peptide substrate incorporates a fluorescence resonance energy transfer (FRET) label (FIG. 18). […] The product fluorescence is proportional to the amount of cleaved substrate. The height of the product signal is proportional to the rate of enzyme turnover for that substrate concentration. The rate of fluorescence generation can be assessed as the fluorescence signal per mixing time of substrate and enzyme in the reaction channel. That mixing time is determined by the mean residence time of the fluorescent product in the reaction channel as it is electrokinetically pumped from the source of the mixing to the detector. Km was determined from the Michaelis Menton equation.
Due to the chemistry of this FRET quenching reaction, several considerations for accurate measurement of Km on the Labchip™ exist. […]
The chip was operational in that fluid was flowing for more than 12 hours of continuous electrokinetic pumping; however, the inhibition response was reproducible for seven hours. The total reagent volume consumed in the experiment can be calculated from the cross sectional area of the capillary and the total current. […] The average percent inhibition response was calculated for the first three inhibited and uninhibited signals at the start of each hour. […]

LAR = LAR (Homo sapiens, UniProt P10586); assay: Cuvette / spectrophotometer LAR phosphatase assay with dFMUP; format: biochemical; details: same running buffer
Description: A least squares fit of the three straight lines: no inhibitor, 35 μM and 69 μM peptide, was performed with the constraint that they meet at a common intercept on the y axis, 1/Vmax FIG. 15. […] The kcat is 4.74 μmol/min nmol LAR. The parallel analysis performed on the spectrophotometer in the same running buffer yielded a kcat of 6 μmol/min nmol LAR. […] The same analysis performed in a cuvette experiment with 1 mg/ml BSA in the running buffer gave 167 μM peptide.
In addition to the above kinetic studies, rate as a function of substrate concentration data was collected on three separate chips in order to consider interchip reproducibility for Km analyses. The combined data were used to prepare a double reciprocal plot. […] This is in excellent agreement with cuvette experiments performed on the spectrophotometer where dFMU was detected at 360 nm in a temperature controlled cuvette at 25_C.

Chain of HCV protease (P27958 1027-1208): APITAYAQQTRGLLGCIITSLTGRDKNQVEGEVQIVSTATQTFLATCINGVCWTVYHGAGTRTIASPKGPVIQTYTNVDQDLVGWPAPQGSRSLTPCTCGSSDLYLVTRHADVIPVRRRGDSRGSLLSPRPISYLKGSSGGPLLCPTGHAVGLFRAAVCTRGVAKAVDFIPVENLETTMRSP
Chain of LAR (P10586 30-1907, species assumed): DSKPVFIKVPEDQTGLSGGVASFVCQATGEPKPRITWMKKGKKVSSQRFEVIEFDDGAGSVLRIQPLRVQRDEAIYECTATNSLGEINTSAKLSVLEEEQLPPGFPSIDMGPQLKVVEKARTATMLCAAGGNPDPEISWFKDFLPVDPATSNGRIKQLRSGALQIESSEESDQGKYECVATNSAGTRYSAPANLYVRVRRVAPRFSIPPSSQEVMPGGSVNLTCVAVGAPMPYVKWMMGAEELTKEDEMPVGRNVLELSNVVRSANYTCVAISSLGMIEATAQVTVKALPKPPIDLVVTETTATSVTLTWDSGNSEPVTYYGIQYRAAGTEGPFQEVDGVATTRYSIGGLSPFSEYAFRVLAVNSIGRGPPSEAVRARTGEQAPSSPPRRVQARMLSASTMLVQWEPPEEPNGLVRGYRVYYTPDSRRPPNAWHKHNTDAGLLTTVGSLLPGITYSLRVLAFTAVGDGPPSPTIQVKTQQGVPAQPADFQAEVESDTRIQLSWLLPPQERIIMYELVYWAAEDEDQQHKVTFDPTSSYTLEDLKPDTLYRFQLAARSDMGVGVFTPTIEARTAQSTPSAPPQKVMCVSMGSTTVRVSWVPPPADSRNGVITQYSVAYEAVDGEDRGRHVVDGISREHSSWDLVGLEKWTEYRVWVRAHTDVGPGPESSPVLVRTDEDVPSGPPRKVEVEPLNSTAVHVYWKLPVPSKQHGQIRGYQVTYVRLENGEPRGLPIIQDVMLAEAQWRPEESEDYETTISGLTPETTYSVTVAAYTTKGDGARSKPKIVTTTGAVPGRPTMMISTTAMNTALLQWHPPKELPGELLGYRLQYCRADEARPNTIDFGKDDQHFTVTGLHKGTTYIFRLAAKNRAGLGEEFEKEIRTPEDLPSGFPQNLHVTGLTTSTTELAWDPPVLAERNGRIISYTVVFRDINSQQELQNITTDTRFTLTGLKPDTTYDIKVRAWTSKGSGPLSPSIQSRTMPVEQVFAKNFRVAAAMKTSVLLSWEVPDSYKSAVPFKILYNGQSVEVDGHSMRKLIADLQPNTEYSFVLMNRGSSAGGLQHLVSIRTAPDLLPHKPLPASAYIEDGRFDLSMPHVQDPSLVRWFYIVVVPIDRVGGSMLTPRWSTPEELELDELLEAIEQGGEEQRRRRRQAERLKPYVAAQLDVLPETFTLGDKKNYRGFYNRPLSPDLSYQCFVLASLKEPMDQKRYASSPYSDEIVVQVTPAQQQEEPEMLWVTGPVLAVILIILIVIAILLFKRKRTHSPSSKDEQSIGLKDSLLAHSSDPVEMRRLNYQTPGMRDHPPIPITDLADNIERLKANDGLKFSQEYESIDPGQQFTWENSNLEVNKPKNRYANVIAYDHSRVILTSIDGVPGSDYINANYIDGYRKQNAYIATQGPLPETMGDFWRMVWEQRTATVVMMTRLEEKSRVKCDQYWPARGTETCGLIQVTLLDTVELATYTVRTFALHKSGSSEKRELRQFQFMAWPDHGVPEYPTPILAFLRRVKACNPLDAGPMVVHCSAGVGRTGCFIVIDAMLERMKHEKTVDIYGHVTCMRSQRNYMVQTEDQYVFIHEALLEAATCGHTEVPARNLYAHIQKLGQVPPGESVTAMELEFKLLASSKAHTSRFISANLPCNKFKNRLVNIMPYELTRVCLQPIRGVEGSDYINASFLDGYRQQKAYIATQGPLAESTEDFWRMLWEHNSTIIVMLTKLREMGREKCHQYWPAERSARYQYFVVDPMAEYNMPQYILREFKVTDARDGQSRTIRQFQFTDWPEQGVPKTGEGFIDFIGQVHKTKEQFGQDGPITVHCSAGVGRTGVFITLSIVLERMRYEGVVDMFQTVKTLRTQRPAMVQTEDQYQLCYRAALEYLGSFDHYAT

Row | kcat (LAR) [μmol/min nmolLAR] | Compound | Vmax (HCV protease) [mM/s] | kcat (HCV protease) [s⁻¹]
1 |  | C/C=C1\NC(=O)[C@H]2CSSCC/C=C/[C@H](CC(=O)N[C@H](C(C)C)C(=O)N2)OC(=O)[C@H](C(C)C)NC1=O [Depsipeptide] | 0.086 | 0.03
2 | 6 | Cc1cc(=O)oc2c(F)c(OP(=O)(O)O)c(F)cc12 [dFMUP] |  | 
